Source: US9072703B2 (Ipsen Pharma S.A.S., priority 2008, dated 2015)
Non-standard residues stand in square brackets, D forms with d. No end group written: not given here. *: point of attachment. Myristoyl = CCCCCCCCCCCCCC(=O)*; Ac6c = NC1(C(=O)O)CCCCC1; Nle = CCCC[C@H](N)C(=O)O; Orn = NCCC[C@H](N)C(=O)O; Ac5c = NC1(C(=O)O)CCCC1; Aib = CC(C)(N)C(=O)O

What was measured:
Sprague Dawley rats = test: Determination of in vivo insulin secretion in normal rats; parameters: species or system rat
Method: D. Determination of In Vivo Insulin Secretion in Normal Rats
Male Sprague Dawley rats with a body weight of approximately 275-300 g were used as experimental subjects. The day prior to the treatment, right atrial cannulae were implanted via the jugular vein under chlorohydrate. Each cannula was filled with 100 u/ml heparin saline and tied. The rats were fasted for approximately 18 hours prior to dosing with the compound or the vehicle (saline/0.25% BSA). The day of the experiment, aliquots of compound were thawed, brought to room temperature and vortexed thoroughly. A careful check was made for any sign of compound coming out of solution. 10 minutes prior to compound/glucose injection, a 500 μl blood sample was withdrawn and replaced with an equal volume of heparinized saline (10 u/ml). At time 0, a 500 μl blood sample was withdrawn through the cannula. Next, either the vehicle or the appropriate dose of the compound was injected into the cannula and pushed in with the glucose (1 g/kg) or vehicle solution. Finally, 500 μl of volume of heparinized saline (10 u/ml) was used to push in the remaining glucose through the cannula. Additional 500 μl blood samples were withdrawn at 2.5, 5, 10, and 20-minute post-glucose dosing; each immediately followed by a bolus, iv injection of 500 μl heparinized saline (10 u/ml) through the cannula. The plasma was collected from the blood samples by centrifugation, and stored at −20° C. until assay for insulin content.
The in vivo effect of the compound of Example 20 was determined in a separate test under the identical experimental conditions as described above, and numerical values of the total insulin secretion for the compound of Example 20 are summarized in Table 4.

[1] = Human plasma half-life assay; format: in vitro ADME; conditions: 37° C., LC-MS, read-out: Human Plasma T½ (converted)
Method: (§1) B. Human and Rat Plasma Half-Life Assay
(§2) 50 μL was removed at various times, like at 0, 1, 2, 3, 4, 8, 24, 32, 48, 56, 72 hours, mixed with 5 μL formic acid and 150 μL acetonitrile in a microcentrifuge tube, vertexed, and centrifuged for 10 minutes at 10K rpm. The supernatant was transferred to an injection vial and analyzed by LC-MS. The LC-MS system consisted of an API4000 mass spectrometer with an ESI probe. Positive ion mode and full scan detection were used. HPLC separation was carried out on a Luna 3μ C8 (2), 2×30 mm column with a gradient from 90% A to 90% B in 10 minutes at a flow rate of 0.3 ml/min. Buffer A was 1% formic acid in water and buffer B was 1% formic acid acetonitrile.

[2] = Rat plasma half-life assay; format: in vitro ADME; conditions: 37° C., LC-MS, read-out: Rat Plasma T½ (converted)
Method: as §1, §2

[3] = molecular target: T1, human recombinant GIP receptor (Homo sapiens, UniProt P48546); test: In vitro hGIP receptor binding assay
T1 construct: expressed in transfected cells; host or cells: CHO-K1 clonal cells (membrane preparation)
T1 sequence (P48546 22-466): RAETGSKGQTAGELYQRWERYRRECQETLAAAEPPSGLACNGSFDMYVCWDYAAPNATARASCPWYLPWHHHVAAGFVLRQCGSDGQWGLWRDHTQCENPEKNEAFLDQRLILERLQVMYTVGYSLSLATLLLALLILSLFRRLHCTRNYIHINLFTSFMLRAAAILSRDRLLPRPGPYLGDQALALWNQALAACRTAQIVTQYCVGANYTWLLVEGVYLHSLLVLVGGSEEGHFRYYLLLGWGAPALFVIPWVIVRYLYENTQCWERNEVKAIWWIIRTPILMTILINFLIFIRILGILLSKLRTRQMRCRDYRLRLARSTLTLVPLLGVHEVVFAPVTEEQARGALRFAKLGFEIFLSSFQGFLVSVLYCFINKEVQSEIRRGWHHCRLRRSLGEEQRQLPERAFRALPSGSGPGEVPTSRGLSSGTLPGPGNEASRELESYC
Method: The final assay volume was 0.5 ml. The incubations were terminated by rapid filtration through GF/C filters (pre-soaked in 0.5% polyethylenimine) using a Brandel filtration manifold. Each tube and filter were then washed three times with 5-ml aliquots of ice-cold buffer.

[4] = Table 3, fasted male Sprague Dawley rats, compound by cannula with glucose 1 g/kg, blood samples to 20 min

| Compound | AUC (total insulin secretion) (Sprague Dawley rats; Table 4, separate test under identical experimental conditions) | half-life at 0.1 mg/ml [1] | half-life at 0.1 mg/ml [2] | AUC (total insulin secretion) (Sprague Dawley rats; [4]) | Ki [3] |
| --- | --- | --- | --- | --- | --- |
| CC[C@H](C)[C@H](NC(=O)[C@H](CCCCN)NC(=O)[C@H](CC(=O)O)NC(=O)C1(NC(=O)[C@H](C)NC(=O)[C@@H](NC(=O)C2(NC(=O)[C@H](Cc3ccc(O)cc3)NC(=O)[C@H](CC(=O)O)NC(=O)[C@H](CO)NC(=O)[C@@H](NC(=O)[C@H](Cc3ccccc3)NC(=O)[C@@H](NC(=O)CNC(=O)[C@H](CCC(=O)O)NC(=O)[C@H](C)NC(=O)[C@@H](N)Cc3ccc(O)cc3)[C@@H](C)O)[C@@H](C)CC)CCCC2)[C@@H](C)CC)CCCC1)C(=O)N[C@@H](Cc1c[nH]cn1)C(=O)N[C@@H](CCC(N)=O)C(=O)N[C@@H](CCC(N)=O)C(=O)N[C@@H](CC(=O)O)C(=O)N[C@@H](Cc1ccccc1)C(=O)N[C@H](C(=O)N[C@@H](CC(N)=O)C(=O)N[C@@H](Cc1c[nH]c2ccccc12)C(=O)N[C@@H](CC(C)C)C(=O)N[C@@H](CC(C)C)C(=O)N[C@@H](C)C(=O)N[C@@H](CCC(N)=O)C(=O)N[C@@H](CCCCN)C(=O)NCC(=O)N[C@@H](CCCCN)C(=O)N[C@@H](CCCCN)C(=O)N[C@@H](CC(N)=O)C(=O)N[C@@H](CC(=O)O)C(=O)N[C@@H](Cc1c[nH]c2ccccc12)C(=O)N[C@@H](CCCCN)C(=O)N[C@@H](Cc1c[nH]cn1)C(=O)N[C@@H](CC(N)=O)C(=O)N[C@H](C(=O)N[C@H](C(=O)N[C@@H](CCC(N)=O)C(=O)N[C@@H](Cc1c[nH]cn1)C(=O)O)[C@@H](C)O)[C@@H](C)CC)C(C)C [Example 20, (A5c^11, 14, His^43)hGIP(1-43)-OH] | 149.39 | 7.2 h | 4.9 h | – | – |
| YAEGTFISDYSI[Aib]MDKIHQQDFVNWLLAQKGKKNDWKHN[Ac5c]TQ-OH [Example 7, (Aib^13, A5c^40)hGIP(1-42)-OH] | – | 7 h | 1.7 h | 176.90 | – |
| Glucose-dependent insulinotropic polypeptide [GIP, reference compound] | – | – | – | 114.87 | – |
| YAEGTFISDY[Ac5c]IAMDKIHQQDFVNWLLAQKGKKNDWKHN[Ac5c]TQ-OH [Example 2, (A5c^11, 40)hGIP(1-42)-OH] | – | 14.1 h | 2.7 h | 286.02 | – |
| YAEGTF[Ac6c]SDYSIAMDKIHQQDFVNWLLAQK[Orn](Myristoyl)KKNDWKHNITQ-OH [Example 19, [A6c^7, Orn^31(N—C(O)—(CH2)12—CH3)]hGIP(1-42)-OH] | – | 6.3 h | 54.6 h | – | 18 nM |
| YAEGTFISDYSI[Aib]MDKIHQQDFVNWLLAQKGKKNDWKHNITQD-NH2 [Example 5, (Aib^13, Asp^43)hGIP(1-43)-NH2] | – | 5.5 h | 1.3 h | 196.17 | – |
| YAEGTFISDY[Ac5c]IAMDKIHQQDFVNWLLAQKGKKNDWKHNI[Ac5c]Q-OH [Example 1, (A5c^11, 41)hGIP(1-42)-OH] | – | 11.4 h | 2.2 h | 304.92 | – |
| YAEGTFISDYSI[Aib][Nle]DKIHQQDFVNWLLAQKGKKNDWKHN[Ac5c]TQ-OH [Example 6, (Aib^13, Nle^14, A5c^40)hGIP(1-42)-OH] | – | 7.8 h | 1.9 h | 180.31 | – |
| CC[C@H](C)[C@H](NC(=O)[C@H](CCCCN)NC(=O)[C@H](CC(=O)O)NC(=O)[C@H](CCSC)NC(=O)[C@H](C)NC(=O)[C@@H](NC(=O)C1(NC(=O)[C@H](Cc2ccc(O)cc2)NC(=O)[C@H](CC(=O)O)NC(=O)[C@H](CO)NC(=O)[C@@H](NC(=O)[C@H](Cc2ccccc2)NC(=O)[C@@H](NC(=O)CNC(=O)[C@H](CCC(=O)O)NC(=O)[C@H](C)NC(=O)[C@@H](N)Cc2ccc(O)cc2)[C@@H](C)O)[C@@H](C)CC)CCCC1)[C@@H](C)CC)C(=O)N[C@@H](Cc1c[nH]cn1)C(=O)N[C@@H](CCC(N)=O)C(=O)N[C@@H](CCC(N)=O)C(=O)N[C@@H](CC(=O)O)C(=O)N[C@@H](Cc1ccccc1)C(=O)N[C@H](C(=O)N[C@@H](CC(N)=O)C(=O)N[C@@H](Cc1c[nH]c2ccccc12)C(=O)N[C@@H](CC(C)C)C(=O)N[C@@H](CC(C)C)C(=O)N[C@@H](C)C(=O)N[C@@H](CCC(N)=O)C(=O)N[C@@H](CCCCN)C(=O)NCC(=O)N[C@@H](CCCCN)C(=O)N[C@@H](CCCCN)C(=O)N[C@@H](CC(N)=O)C(=O)N[C@@H](CC(=O)O)C(=O)N[C@@H](Cc1c[nH]c2ccccc12)C(=O)N[C@@H](CCCCN)C(=O)N[C@@H](Cc1c[nH]cn1)C(=O)N[C@@H](CC(N)=O)C(=O)N[C@H](C(=O)N[C@H](C(=O)N[C@@H](CCC(N)=O)C(=O)N[C@@H](Cc1c[nH]cn1)C(=O)O)[C@@H](C)O)[C@@H](C)CC)C(C)C [Example 3, (A5c^11, His^43)hGIP(1-43)-OH] | – | 7 h | 1.9 h | 269.83 | – |
| YAEGTFISDY[Ac5c]IAMDKIHQQDFVNWLLAQKGKKNDWKHNITQN-OH [Example 4, (A5c^11, Asn^43)hGIP(1-43)-OH] | – | 7.2 h | 4.1 h | 265.11 | – |
| CCCCCCCCCCCC(=O)NCCC[C@H](NC(=O)CNC(=O)[C@H](CCCCN)NC(=O)[C@H](CCC(N)=O)NC(=O)[C@H](C)NC(=O)[C@H](CC(C)C)NC(=O)[C@H](CC(C)C)NC(=O)[C@H](Cc1c[nH]c2ccccc12)NC(=O)[C@H](CC(N)=O)NC(=O)[C@@H](NC(=O)[C@H](Cc1ccccc1)NC(=O)[C@H](CC(=O)O)NC(=O)[C@H](CCC(N)=O)NC(=O)[C@H](CCC(N)=O)NC(=O)[C@H](Cc1c[nH]cn1)NC(=O)[C@@H](NC(=O)[C@H](CCCCN)NC(=O)[C@H](CC(=O)O)NC(=O)[C@H](CCSC)NC(=O)[C@H](C)NC(=O)[C@@H](NC(=O)C1(NC(=O)[C@H](Cc2ccc(O)cc2)NC(=O)[C@H](CC(=O)O)NC(=O)[C@H](CO)NC(=O)[C@@H](NC(=O)[C@H](Cc2ccccc2)NC(=O)[C@@H](NC(=O)CNC(=O)[C@H](CCC(=O)O)NC(=O)[C@H](C)NC(=O)[C@@H](N)Cc2ccc(O)cc2)[C@@H](C)O)[C@@H](C)CC)CCCC1)[C@@H](C)CC)[C@@H](C)CC)C(C)C)C(=O)N[C@@H](CCCCN)C(=O)N[C@@H](CC(N)=O)C(=O)N[C@@H](CC(=O)O)C(=O)N[C@@H](Cc1c[nH]c2ccccc12)C(=O)N[C@@H](CCCCN)C(=O)N[C@@H](Cc1c[nH]cn1)C(=O)N[C@@H](CC(N)=O)C(=O)N[C@H](C(=O)N[C@H](C(=O)N[C@@H](CCC(N)=O)C(=O)N[C@@H](Cc1c[nH]cn1)C(=O)O)[C@@H](C)O)[C@@H](C)CC [Example 34, [A5c^11, Orn^32(N—C(O)—(CH2)10—CH3), His^43]hGIP(1-43)-OH] | – | 7.5 h | 20.1 h | – | – |
| YAEGTFISDY[Ac5c]IAMDKIHQQDFVNWLLAQKGKKNDWKHNI[Ac5c]QC-NH2 [Example 33, (A5c^11, 41, Cys^43)hGIP(1-43)-NH2] | – | 15.8 h | 6.5 h | – | – |
| YAEGTFISDYSI[Aib]MDKIHQQDFVNWLLAQKGKKNDWKHNITQW-OH [Example 12, (Aib^13, Trp^43)hGIP(1-43)-OH] | – | 6.9 h | 2.1 h | – | – |
